# Experiments:
# healthy adults = test: Phase 1 first-in-human study: safety and tolerability (adverse events), SAD and MAD cohorts; conditions: in vivo
# From the text: Study Overview and Ethics. The study used a randomized, placebo-controlled, single-ascending dose (SAD) and multiple-ascending dose (MAD) design (FIG. 2). […] Dose escalation was to be stopped when this range was achieved, or when a non-tolerated dose was identified, if earlier.
# Participants and Treatments. To be eligible for this study, participants were to be healthy adults aged 18 to 55 years, with body mass index of 18.0 to 32.0 kg/m^2, normal electrocardiogram (ECG) and clinical laboratory values, or only minor abnormalities that were deemed not clinically significant. Participants also had to have normal cardiac structure and function, with LVEF≥60% for the first 4 SAD cohorts, ≥65% for subsequent SAD cohorts, all MAD cohorts, and the food-effect cohort, and >55% for the CYP2D6-PM cohort. […]
# Safety and tolerability. Safety was assessed by the incidence of adverse events (AEs) and by incidence of reduced LVEF. […]
# For safety monitoring, participants in all cohorts had periodic echocardiograms, which were assessed by a cardiologist. […] In addition, participants in all cohorts were monitored with continuous 12-lead ECG recording using Holter monitors. […] In the SAD, MAD, and CYP2D6-PM cohorts, cardiodynamic ECGs (triplicate 10-second, 12-lead ECG recordings) were obtained prior to the corresponding PK blood and ECG intervals quantitated by qualified readers.
# [1] = test system: patients with symptomatic obstructive HCM (oHCM); test: Phase 2 trial in oHCM, Cohorts 1 and 2: echocardiography, NYHA class, biomarkers; assay type: in vivo, human; conditions: for Average ejection fraction: at 10 weeks
# From the text: Cohort 3 included patients receiving disopyramide.
# Since patient characteristics vary substantially in this disease, individualized dose titration to a pharmacodynamics (PD) response (reduction of the LVOT-G to <30 mmHg with preservation of LVEF>50%) was employed to maximize efficacy and safety.
# Body weight was ≥45 kg at screening; 4. […] Adequate acoustic windows for echocardiography; 6. Had LVOT-G during screening as follows for Cohorts 1 and 2: (a) resting gradient≥50 mmHg; or (b) resting gradient≥30 mmHg and <50 mmHg with post-Valsalva LVOT-G≥50 mmHg; or as follows for Cohort 3: persistent resting LVOT obstruction (≥30 mmHg) and provoked LVOT obstruction (≥50 mmHg); 7. Left ventricular ejection fraction (LVEF)≥60% at screening; 8. […] Able to complete all screening procedures; and 13. Taking stable doses of disopyramide for >4 weeks prior to screening (Cohort 3 only).
# Aortic stenosis or fixed subaortic obstruction; 2. […] Has been treated with septal reduction therapy (surgical myectomy or percutaneous alcohol septal ablation) or has plans for either treatment during the study period; 6. […] Hemoglobin<10.0 g/dL at screening; 18. […] Has received prior treatment with CK-3773274 or is currently receiving mavacamten; 21.
# Patients up-titrated to Dose 2 if either of the following conditions were met on echocardiography: (1) resting LVOT-G≥30 mmHg and the biplane LVEF≥50%; or (2) resting LVOT-G<30 mmHg, post-Valsalva LVOT-G≥50 mmHg, and the biplane LVEF≥50%. Otherwise, the patient remains on Dose 1. If LVEF is <50% at Week 2, the patient was down-titrated to placebo.
# Patients were escalated to the next higher dose if either of the following conditions were met on echocardiography: (1) resting LVOT-G≥30 mmHg and the biplane LVEF≥50%; or (2) resting LVOT-G<30 mmHg, post-Valsalva LVOT-G≥50 mmHg, and the biplane LVEF≥50%. Otherwise, the patient remained on the same dose. If LVEF was <50% at Week 4, the patient was returned to a prior dose level or to placebo if the patient was on Dose 1.
# Echocardiograms obtained every 2 weeks and 2 weeks after the last dose were analyzed for several key structural and physiologic metrics and N-terminal prohormone of brain natriuretic peptide (NT-proBNP).
# Initial results from the clinical study included data from two sequentially conducted cohorts, Cohort 1 (n=21) and Cohort 2 (n=20) which randomized treatment of patients 2:1 to CK-274 or placebo. […] Overall, treatment duration for each patient in the study was 10 weeks with an echocardiogram conducted 2 weeks after the last dose.
smiles,measurement,setting,value
"CCc1nc(-c2ccc3c(c2)CC[C@H]3NC(=O)c2cnn(C)c2)no1 [aficamten, (R)—N-(5-(5-ethyl-1,2,4-oxadiazol-3-yl)-2,3-dihydro-1H-inden-1-yl)-1-methyl-1H-pyrazole-4-carboxamide]",Time to resolution of AEs of decreased ejection fraction <45%,healthy adults; human,2.5 to 4.6 h
same,Post-dose LVEF of 1 participant with LVEF <50%,healthy adults,46.2%
same,Patients with complete hemodynamic response / target goal (resting gradient <30 mmHg and post-Valsalva gradient <50 mmHg),"[1]; Cohort 1 (5, 10, 15 mg), Week 10, 11 out of 14",79%
same,Average ejection fraction,"[1]; Cohort 1 (n=14), baseline 72.8 (73±6)",67±9%
same,Patients with complete hemodynamic response / target goal (resting gradient <30 mmHg and post-Valsalva gradient <50 mmHg),"[1]; Cohort 2 (10, 20, 30 mg), Week 10, 13 out of 14",93%
same,Average ejection fraction,"[1]; Cohort 2 (n=14), baseline 75.4 (75±6)",64±8%
same,Patients converted from NYHA class III to class II or I,[1]; Cohorts 1 and 2,7 patients
same,Time of occurrence of reductions in LVOT-G after initiating treatment,[1]; Cohorts 1 and 2,within two weeks
same,Time of peak reduction in LVOT-G,[1]; Cohorts 1 and 2,within two to six weeks of the end of dose titration
same,Patients who improved from NYHA class III to I,[1]; pooled aficamten Cohorts 1 and 2,one
same,LVMI mean difference vs placebo,"[1]; week 10, p=0.063",8.1 g/m^2

# Source: patent publication US20250177357A1, “METHODS FOR TREATING HYPERTROPHIC CARDIOMYOPATHY” (priority 2021, published 2025)
